Laboratory results taken from US11470846B2, “Herbicidal pyridino-/pyrimidino-thiazoles” (SYNGENTA PARTICIPATIONS AG, priority 2014, dated 2022).

Legend:
Type in all cases: in vivo
[1] = test system: Alopecurus myosuroides (ALOMY); experiment: Post-emergence herbicidal activity; conditions: post-emergence application, 1000 g/Ha, evaluated after 13 days, scale 0-5
Protocol: (§1) B2 Post-Emergence Herbicidal Activity
(§2) Seeds of a variety of test species were sown in standard soil in pots: Triticum aestivium (TRZAW), Oryza sativa (ORYSA), Avena fatua (AVEFA), Alopecurus myosuroides (ALOMY), Echinochloa crus-galli (ECHCG), Lolium perenne (LOLPE), Zea Mays (ZEAMX), Abutilon theophrasti (ABUTH), Amaranthus retroflexus (AMARE) and Setaria faberi (SETFA). After 8 days cultivation (post-emergence) under controlled conditions in a glasshouse (at 24/16° C., day/night; 14 hours light; 65% humidity), the plants were sprayed with an aqueous spray solution derived from the formulation of the technical active ingredient in acetone/water (50:50) solution containing 0.5% Tween 20 (polyoxyethelyene sorbitan monolaurate, CAS RN 9005-64-5). The test plants were then grown in a glasshouse under controlled conditions (at 24/16° C., day/night; 14 hours light; 65% humidity) and watered twice daily. After 13 days, the test was evaluated (5=total damage to plant; 0=no damage to plant).

Lolium perenne (LOLPE) [2] = experiment: Post-emergence herbicidal activity; conditions: post-emergence application, 1000 g/Ha, evaluated after 13 days, scale 0-5; Table 7
Protocol: as §1, §2

Oryza sativa (ORYSA) [3] = experiment: Post-emergence herbicidal activity; conditions: post-emergence application, 1000 g/Ha, evaluated after 13 days, scale 0-5
Protocol: as §1, §2

[4] = test system: Triticum aestivium (TRZAW); experiment: Post-emergence herbicidal activity; conditions: post-emergence application, 1000 g/Ha, evaluated after 13 days, scale 0-5
Protocol: as §1, §2

Avena fatua (AVEFA) [5] = experiment: Post-emergence herbicidal activity; conditions: post-emergence application, 1000 g/Ha, evaluated after 13 days, scale 0-5
Protocol: as §1, §2

[6] = test system: Echinochloa crus-galli (ECHCG); experiment: Post-emergence herbicidal activity; conditions: post-emergence application, 1000 g/Ha, evaluated after 13 days, scale 0-5; Table 7
Protocol: as §1, §2

[7] = test system: Alopecurus myosuroides (ALOMY); experiment: Pre-emergence herbicidal activity; conditions: pre-emergence application, 1000 g/Ha, evaluated after 13 days, scale 0-5
Protocol: (§3) B1 Pre-Emergence Herbicidal Activity
as §2, with “After” for “After 8 days”, “for one day (pre-emergence)” for “(post-emergence)”

Lolium perenne (LOLPE) [8] = experiment: Pre-emergence herbicidal activity; conditions: pre-emergence application, 1000 g/Ha, evaluated after 13 days, scale 0-5; Table 5
Protocol: as §3
as §2, with “After” for “After 8 days”, “for one day (pre-emergence)” for “(post-emergence)”

Oryza sativa (ORYSA) [9] = experiment: Pre-emergence herbicidal activity; conditions: pre-emergence application, 1000 g/Ha, evaluated after 13 days, scale 0-5
Protocol: as §3
as §2, with “After” for “After 8 days”, “for one day (pre-emergence)” for “(post-emergence)”

[10] = test system: Triticum aestivium (TRZAW); experiment: Pre-emergence herbicidal activity; conditions: pre-emergence application, 1000 g/Ha, evaluated after 13 days, scale 0-5
Protocol: as §3
as §2, with “After” for “After 8 days”, “for one day (pre-emergence)” for “(post-emergence)”

Avena fatua (AVEFA) [11] = experiment: Pre-emergence herbicidal activity; conditions: pre-emergence application, 1000 g/Ha, evaluated after 13 days, scale 0-5
Protocol: as §3
as §2, with “After” for “After 8 days”, “for one day (pre-emergence)” for “(post-emergence)”

[12] = test system: Echinochloa crus-galli (ECHCG); experiment: Pre-emergence herbicidal activity; conditions: pre-emergence application, 1000 g/Ha, evaluated after 13 days, scale 0-5; Table 5
Protocol: as §3
as §2, with “After” for “After 8 days”, “for one day (pre-emergence)” for “(post-emergence)”

Row | Structure (SMILES) | Control of weed species, ALOMY (damage score) [1] | Control of weed species, LOLPE (damage score) (Lolium perenne (LOLPE) [2]) | Control of weed species, ORYSA (damage score) (Oryza sativa (ORYSA) [3]) | Control of weed species, TRZAW (damage score) [4] | Control of weed species, AVEFA (damage score) (Avena fatua (AVEFA) [5]) | Control of weed species, ECHCG (damage score) [6] | Control of weed species, ALOMY (damage score) [7] | Control of weed species, LOLPE (damage score) (Lolium perenne (LOLPE) [8]) | Control of weed species, ORYSA (damage score) (Oryza sativa (ORYSA) [9]) | Control of weed species, TRZAW (damage score) [10] | Control of weed species, AVEFA (damage score) (Avena fatua (AVEFA) [11]) | Control of weed species, ECHCG (damage score) [12]
1 | COC(=O)N(C)c1sc(-c2cccnc2)nc1C [Compound A18] | 1 | 2 | 0 | 1 | 3 | 5 | 1 | 2 | 0 | 1 | 2 | 5
2 | CN(C(=O)OC(C)(C)C)c1sc(-c2cccnc2)nc1I [Compound A31, tert-butyl N-[4-iodo-2-(3-pyridyl)thiazol-5-yl]-N-methyl-carbamate] | 1 | 3 | 1 | 1 | 5 | 4 | 1 | 2 | 1 | 1 | 1 | 3
3 | CN(C(=O)OC(C)(C)C)c1sc(-c2cncc(F)c2)nc1Br [Compound A51] | 0 | 2 | 0 | 0 | 4 | 4 | 0 | 3 | 0 | 0 | 2 | 1
4 | Cc1nc(-c2cccnc2)sc1N(C)C(=S)SC(C)(C)C [Compound A23, tert-butyl N-methyl-N-[4-methyl-2-(3-pyridyl)thiazol-5-yl]carbamodithioate] | 0 | 0 | 0 | 0 | 1 | 1 | 0 | 0 | 0 | 0 | 0 | 0
5 | Cc1nc(-c2cncc(F)c2)sc1N(C)C(=O)OC(C)(C)C [Compound A3, tert-butyl N-[2-(5-fluoro-3-pyridyl)-4-methyl-thiazol-5-yl]-N-methyl-carbamate] | 1 | 3 | 1 | 1 | 4 | 5 | 1 | 2 | 1 | 1 | 3 | 4
6 | CCOC(=O)N(C)c1sc(-c2cccnc2)nc1C [Compound A19, ethyl N-methyl-N-[4-methyl-2-(3-pyridyl)thiazol-5-yl]carbamate] | 1 | 2 | 0 | 1 | 3 | 5 | 1 | 1 | 0 | 0 | 1 | 5
7 | Cc1nc(-c2cncc(O)c2)sc1N(C)C(=O)OC(C)(C)C [Compound A15] | 0 | 1 | 0 | 1 | 2 | 1 | 0 | 0 | 0 | 0 | 0 | 0
8 | CN(C(=O)OC(C)(C)C)c1sc(-c2cncnc2)nc1C(F)(F)F [Compound A26] | 0 | 4 | 2 | 1 | 5 | 5 | 2 | 3 | 1 | 0 | 4 | 4
9 | Cc1nc(-c2cccnc2)sc1N(C)C(=O)Oc1ccc([N+](=O)[O-])cc1 [Compound A61, (4-nitrophenyl) N-methyl-N-[4-methyl-2-(3-pyridyl)thiazol-5-yl]carbamate] | 0 | 1 | 0 | 1 | 2 | 1 |  |  |  |  |  | 
10 | Cc1nc(-c2cncc(F)c2)sc1NC(=O)OC(C)(C)C [Compound A35, tert-butyl N-[2-(5-fluoro-3-pyridyl)-4-methyl-thiazol-5-yl]carbamate] | 0 | 0 | 0 | 1 | 1 | 2 |  |  |  |  |  | 
